# Source: ChEMBL document CHEMBL3045468, “I2 catalyzed FriedelCrafts alkylation reaction of substituted anilines with ninhydrin: formation of novel products and their antimicrobial evaluation” (2013)
# Activity calls are given as the source filed them. No cut-off for these calls is given here.
# Tests used:
# [1] = test system: Pseudomonas aeruginosa; experiment: Antibacterial activity against Pseudomonas aeruginosa 71 clinical isolate assessed as growth inhibition at 1 mg/ml after 24 hr by NCCLS agar diffusion method; assay type: functional
# [2] = test system: Bacillus pumilus; experiment: Antibacterial activity against Bacillus pumilus 11778 clinical isolate assessed as growth inhibition at 1 mg/ml after 24 hr by NCCLS agar diffusion method; assay type: functional; conditions: for zone of inhibition at 1000 µg/mL: Bacillus pumilus, 11778, 24 h, read-out: DIZ
# [3] = test system: Escherichia coli; experiment: Antibacterial activity against Escherichia coli 319 clinical isolate assessed as growth inhibition at 1 mg/ml after 24 hr by NCCLS agar diffusion method; assay type: functional; conditions: for zone of inhibition at 1000 µg/mL: Escherichia coli, 319, 24 h, read-out: DIZ
# [4] = test system: Micrococcus luteus; experiment: Antibacterial activity against Micrococcus luteus ATCC 9341 clinical isolate assessed as growth inhibition at 1 mg/ml after 24 hr by NCCLS agar diffusion method; assay type: functional; conditions: for zone of inhibition at 1000 µg/mL: ATCC 9341, 24 h, read-out: DIZ
# [5] = test system: Shigella dysenteriae; experiment: Antibacterial activity against Shigella dysenteriae 15 clinical isolate assessed as growth inhibition at 1 mg/ml after 24 hr by NCCLS agar diffusion method; assay type: functional; conditions: for zone of inhibition at 1000 µg/mL: Shigella dysenteriae, 15, 24 h, read-out: DIZ
# [6] = test system: Staphylococcus aureus; experiment: Antibacterial activity against Staphylococcus aureus 29737 clinical isolate assessed as growth inhibition at 1 mg/ml after 24 hr by NCCLS agar diffusion method; assay type: functional; conditions: for zone of inhibition at 1000 µg/mL: Staphylococcus aureus, 29737, 24 h, read-out: DIZ
# [7] = test system: Klebsiella pneumoniae; experiment: Antibacterial activity against Klebsiella pneumoniae J/I/4 clinical isolate assessed as growth inhibition at 1 mg/ml after 24 hr by NCCLS agar diffusion method; assay type: functional; conditions: for zone of inhibition at 1000 µg/mL: J/I/4, 24 h, read-out: DIZ
# [8] = test system: Vibrio cholerae; experiment: Antibacterial activity against Vibrio cholerae 759 clinical isolate assessed as growth inhibition at 1 mg/ml after 24 hr by NCCLS agar diffusion method; assay type: functional; conditions: for zone of inhibition at 1000 µg/mL: Vibrio cholerae, 759, 24 h, read-out: DIZ
# [9] = test system: Cryptococcus neoformans; experiment: Antifungal activity against Cryptococcus neoformans clinical isolate assessed as growth inhibition after 96 hr by agar dilution method; assay type: functional
# [10] = test system: Candida tropicalis; experiment: Antifungal activity against Candida tropicalis clinical isolate assessed as growth inhibition after 96 hr by agar dilution method; assay type: functional
# [11] = test system: Candida albicans; experiment: Antifungal activity against Candida albicans clinical isolate assessed as growth inhibition after 96 hr by agar dilution method; assay type: functional
# [12] = test system: Aspergillus niger; experiment: Antifungal activity against Aspergillus niger clinical isolate assessed as growth inhibition after 96 hr by agar dilution method; assay type: functional
# [13] = test system: Cryptococcus neoformans; experiment: Antifungal activity against Cryptococcus neoformans clinical isolate assessed as growth inhibition at 1 mg/ml after 96 hr by NCCLS agar diffusion method; assay type: functional; conditions: read-out: DIZ
# [14] = test system: Candida tropicalis; experiment: Antifungal activity against Candida tropicalis clinical isolate assessed as growth inhibition at 1 mg/ml after 96 hr by NCCLS agar diffusion method; assay type: functional; conditions: read-out: DIZ
# [15] = test system: Candida albicans; experiment: Antifungal activity against Candida albicans clinical isolate assessed as growth inhibition at 1 mg/ml after 96 hr by NCCLS agar diffusion method; assay type: functional; conditions: read-out: DIZ
# [16] = test system: Aspergillus niger; experiment: Antifungal activity against Aspergillus niger clinical isolate assessed as growth inhibition at 1 mg/ml after 96 hr by NCCLS agar diffusion method; assay type: functional; conditions: read-out: DIZ
# [17] = test system: Escherichia coli; experiment: Antibacterial activity against Escherichia coli 319 clinical isolate assessed as morphological changes at MIC after 24 hr by scanning electron microscopic analysis; assay type: functional, organism-based
# [18] = test system: Vibrio cholerae; experiment: Bactericidal activity against Vibrio cholerae 759 clinical isolate assessed as reduction of viable CFU count at MIC measured up to 48 hr relative to untreated control; assay type: functional, organism-based
# [19] = test system: Escherichia coli; experiment: Bactericidal activity against Escherichia coli 319 clinical isolate assessed as reduction of viable CFU count at MIC measured up to 48 hr relative to untreated control; assay type: functional, organism-based
# [20] = test system: Vibrio cholerae; experiment: Antibacterial activity against Vibrio cholerae 759 clinical isolate assessed as growth inhibition after 24 hr by agar dilution method; assay type: functional
# [21] = test system: Shigella dysenteriae; experiment: Antibacterial activity against Shigella dysenteriae 15 clinical isolate assessed as growth inhibition after 24 hr by agar dilution method; assay type: functional
# [22] = test system: Klebsiella pneumoniae; experiment: Antibacterial activity against Klebsiella pneumoniae J/I/4 clinical isolate assessed as growth inhibition after 24 hr by agar dilution method; assay type: functional
# [23] = test system: Pseudomonas aeruginosa; experiment: Antibacterial activity against Pseudomonas aeruginosa 71 clinical isolate assessed as growth inhibition after 24 hr by agar dilution method; assay type: functional
# [24] = test system: Escherichia coli; experiment: Antibacterial activity against Escherichia coli 319 clinical isolate assessed as growth inhibition after 24 hr by agar dilution method; assay type: functional
# [25] = test system: Staphylococcus aureus; experiment: Antibacterial activity against Staphylococcus aureus 29737 clinical isolate assessed as growth inhibition after 24 hr by agar dilution method; assay type: functional
Compound,growth inhibition (GI) [1],zone of inhibition at 1000 µg/mL [2],zone of inhibition at 1000 µg/mL [3],growth inhibition (GI) [4],growth inhibition (GI) [5],growth inhibition (GI) [6],zone of inhibition at 1000 µg/mL [7],growth inhibition (GI) [8],growth inhibition (GI) [3],growth inhibition (GI) [7],growth inhibition (GI) [2],zone of inhibition at 1000 µg/mL [8],also measured
Cc1cc(C2(c3cc(C)c(N)cc3F)C(=O)c3ccccc3C2=O)c(F)cc1N,inactive,7 mm,7 mm,inactive,inactive,inactive,7 mm,inactive,–,–,–,–,–
Cc1cc(C2(c3cc(C)c(N)c(C)c3)C(=O)c3ccccc3C2=O)cc(C)c1N,inactive,9 mm,–,inactive,inactive,inactive,–,inactive,inactive,inactive,–,–,–
OC(Cn1cncn1)(Cn1cncn1)c1ccc(F)cc1F [FLUCONAZOLE],–,–,–,–,–,–,–,–,–,–,–,–,MIC [9]: 8 µg/mL; MIC [10]: 8 µg/mL; MIC [11]: 4 µg/mL; MIC [12]: 10 µg/mL
Nc1ccc(C2(c3ccc(N)c([N+](=O)[O-])c3)C(=O)c3ccccc3C2=O)cc1[N+](=O)[O-],inactive,–,–,inactive,inactive,–,–,inactive,inactive,inactive,inactive,–,zone of inhibition at 1000 µg/mL [6]: 8 mm
COc1cc(N)ccc1C1(O)C(=O)c2ccccc2C1=O,inactive,–,–,–,inactive,–,–,inactive,inactive,inactive,inactive,–,zone of inhibition at 1000 µg/mL [4]: 8 mm; zone of inhibition at 1000 µg/mL [6]: 7 mm
CCN(CC)c1ccc(C2(O)C(=O)c3ccccc3C2=O)cc1,inactive,7 mm,9 mm,inactive,–,inactive,–,inactive,–,inactive,–,–,zone of inhibition at 1000 µg/mL [5]: 7 mm
Nc1ccc(C2(c3ccc(N)c(I)c3)C(=O)c3ccccc3C2=O)cc1I,–,–,–,–,inactive,–,–,inactive,inactive,inactive,inactive,–,"zone of inhibition at 1000 µg/mL ([1]; Pseudomonas aeruginosa, 71, 24 h, read-out: DIZ): 8 mm; zone of inhibition at 1000 µg/mL [4]: 8 mm; zone of inhibition at 1000 µg/mL [6]: 8 mm"
Nc1ccc(C2(c3ccc(N)c(Br)c3)C(=O)c3ccccc3C2=O)cc1Br,inactive,8 mm,8 mm,inactive,inactive,inactive,6 mm,–,–,–,–,9 mm,zone of inhibition at 1000 µg/mL [13]: 8 mm; zone of inhibition at 1000 µg/mL [14]: 8 mm; zone of inhibition at 1000 µg/mL [15]: 10 mm; zone of inhibition at 1000 µg/mL [16]: 12 mm; MIC [9]: 1500 µg/mL; MIC [10]: 2000 µg/mL; MIC [11]: 2500 µg/mL; MIC [12]: 1000 µg/mL
Cc1ccc(NC2(c3cc(C)c(C)cc3N)C(=O)c3ccccc3C2=O)cc1C,inactive,–,7 mm,inactive,inactive,inactive,–,inactive,–,inactive,inactive,–,–
Cc1cc(C2(c3ccc(N)c(C)c3)C(=O)c3ccccc3C2=O)ccc1N,inactive,7 mm,7 mm,inactive,–,inactive,–,–,–,inactive,–,8 mm,zone of inhibition at 1000 µg/mL [5]: 7 mm; zone of inhibition at 1000 µg/mL [14]: 8 mm; zone of inhibition at 1000 µg/mL [15]: 10 mm; zone of inhibition at 1000 µg/mL [16]: 7.6 mm; MIC [10]: 2000 µg/mL; MIC [11]: 1000 µg/mL; MIC [12]: 1000 µg/mL; Activity [17]: Active; Activity [18]: Active; Activity [19]: Active
CN(C)c1ccc(C2(O)C(=O)c3ccccc3C2=O)cc1,inactive,–,7 mm,inactive,inactive,–,–,inactive,–,inactive,inactive,–,zone of inhibition at 1000 µg/mL [6]: 7 mm
Nc1ccc(C2(c3ccc(N)cc3)C(=O)c3ccccc3C2=O)cc1,inactive,8 mm,6 mm,inactive,–,inactive,7 mm,inactive,–,–,–,–,zone of inhibition at 1000 µg/mL [5]: 7 mm; zone of inhibition at 1000 µg/mL [14]: 8.2 mm; zone of inhibition at 1000 µg/mL [15]: 9 mm; zone of inhibition at 1000 µg/mL [16]: 10 mm; MIC [10]: 1000 µg/mL; MIC [11]: 1000 µg/mL; MIC [12]: 1000 µg/mL
COc1cc(C2(Nc3cc(Cl)ccc3OC)C(=O)c3ccccc3C2=O)c(Cl)cc1N,inactive,–,–,–,inactive,inactive,–,–,inactive,inactive,inactive,8 mm,"zone of inhibition at 1000 µg/mL [4]: 9 mm; MIC ([20]; Vibrio cholerae, 759, 24 h): 32 mg/mL; Activity [18]: Active; Activity [19]: Active"
CNc1ccc(C2(c3ccc(NC)cc3)C(=O)c3ccccc3C2=O)cc1,inactive,–,7 mm,inactive,inactive,inactive,7.5 mm,–,–,–,inactive,8 mm,–
Nc1ccc(C2(c3ccc(N)c(Cl)c3)C(=O)c3ccccc3C2=O)cc1Cl,inactive,–,8 mm,inactive,–,inactive,8 mm,inactive,–,–,inactive,–,"zone of inhibition at 1000 µg/mL [5]: 6 mm; MIC ([21]; Shigella dysenteriae, 15, 24 h): 32 mg/mL"
Nc1ccc(C2(O)C(=O)c3ccccc3C2=O)c2ncccc12,inactive,–,8 mm,inactive,inactive,inactive,–,inactive,–,inactive,inactive,–,–
GENTAMICIN,–,–,–,–,–,–,–,–,–,–,–,–,MIC [22]: 250 µg/mL; MIC [20]: 2 mg/mL; MIC [23]: 4000 µg/mL; MIC [24]: 500 µg/mL; MIC [21]: 2 mg/mL; MIC [25]: 1000 µg/mL
COc1cc(C2(c3ccc(N)c(OC)c3)C(=O)c3ccccc3C2=O)ccc1N,inactive,8 mm,–,inactive,inactive,inactive,7 mm,–,inactive,–,–,7 mm,–
Nc1c(Cl)cc(Cl)cc1C1(Nc2ccc(Cl)cc2Cl)C(=O)c2ccccc2C1=O,inactive,–,8 mm,inactive,–,inactive,7 mm,–,–,–,inactive,7 mm,zone of inhibition at 1000 µg/mL [5]: 7 mm; zone of inhibition at 1000 µg/mL [13]: 8 mm; zone of inhibition at 1000 µg/mL [16]: 8 mm; MIC [10]: 1000 µg/mL; MIC [12]: 1000 µg/mL
